Reference: patent US10611740B2, “Aryl dihydro-2H-benzo[b][1,4]oxazine sulfonamide and related compounds for use as agonists of RORγ and the treatment of disease” (Lycera Corporation, priority 2015, dated 2020)
pEC50: −log10 of the molar value.

Tests used:
RORγ-LBD = biological target: T1, RORγ-LBD (Homo sapiens, UniProt P51449); experiment: RORγ-Ligand Binding Domain (LBD) TR-FRET Assay; assay type: biochemical;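 on TR-FRET Assay Max Response: 665/615 nm ratio relative to signal without ursolic acid or compound set at 100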
T1 construct: made in house; host or cells: SF9 cells (baculovirus)
T1 sequence (P51449 269-508 limits assumed): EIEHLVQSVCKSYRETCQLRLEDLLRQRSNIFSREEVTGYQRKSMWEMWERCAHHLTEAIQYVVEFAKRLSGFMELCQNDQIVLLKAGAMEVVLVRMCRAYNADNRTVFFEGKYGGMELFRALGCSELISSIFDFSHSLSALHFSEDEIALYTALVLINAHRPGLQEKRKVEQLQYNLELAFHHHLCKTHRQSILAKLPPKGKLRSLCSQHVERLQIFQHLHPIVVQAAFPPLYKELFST
In short: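 Compounds, diluted in DMSO and then in assay buffer (1% DMSO final), were combined with His-tagged RORγ-LBD lysate at roughly 3 nM final and a 200 nM biotinylated SRC1 LXXLL peptide. Ursolic acid was included at 2 μM final. Coactivator recruitment was detected by TR-FRET.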

Gal4-RORγ-LBD = biological target: T2, Gal4-RORγ-LBD (Homo sapiens, UniProt P51449); experiment: Gal4-RORγ Luciferase Reporter Assay in HEK-293T Cells; assay type: cell-based; settings: HEK-293 cells
T2 construct: expressed in transfected cells; host or cells: HEK-293 cells (pcDNA3.1neo plasmid)
T2 sequence (P51449 269-508 limits assumed): T1 sequence (P51449 269-508 limits assumed)
In short: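 HEK-293 cells were transiently co-transfected with Gal4-RORγ-LBD and pGL4.31 Gal4-luciferase, with ursolic acid added at 2 μM final. Compounds were incubated overnight at 37° C. in 0.2% DMSO and luminescence read with One-Glo. Max Response is the upper plateau of a 4-parameter logistic fit, with signal lacking ursolic acid or compound set to 100.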

[1] = luciferase reporter, with 2 μM ursolic acid

Structure (SMILES)	pEC50 (RORγ-LBD)	TR-FRET Assay Max Response (RORγ-LBD)	pEC50 (Gal4-RORγ-LBD; 2 μM ursolic acid)	Gal4-RORγ Assay Max Response (Gal4-RORγ-LBD; 2 μM ursolic acid)	pEC50 (Gal4-RORγ-LBD; [1])	Gal4-RORγ Assay Max Response (Gal4-RORγ-LBD; [1])
CC(=O)NC(C)(C)C[C@H]1CN(S(=O)(=O)c2cccc(C(F)(F)F)c2)c2cc(-c3cc(F)ccc3F)ccc2O1 [Compound 30CV, (S)-N-(1-(6-(2,5-difluoro-phenyl)-4-((3-(trifluoromethyl)-phenyl)sulfonyl)-3,4-dihydro-2H-benzo[b][1,4]oxazin-2-yl)-2-methylpropan-2-yl)acetamide]	> 6.30	*** (The symbol “***” indicates a value in the range of greater than 150 to 200)	> 6.30	* (The symbol “*” indicates a value in the range of 25 to 90)	–	–
CC(C)(C[C@H]1CN(S(=O)(=O)c2cccc(C(F)(F)F)c2)c2cc(-c3cc(F)ccc3F)ccc2O1)NC(=O)C(C)(C)O [Compound 30CX, (S)-N-(1-(6-(2,5-difluoro-phenyl)-4-((3-(trifluoromethyl)-phenyl)sulfonyl)-3,4-dihydro-2H-benzo[b][1,4]oxazin-2-yl)-2-methylpropan-2-yl)-2-hydroxy-2-methylpropanamide]	> 6.30	** (The symbol “**” indicates a value in the range of greater than 90 to 150)	> 6.30	* (The symbol “*” indicates a value in the range of 25 to 90)	–	–
CC(C)c1cccc(S(=O)(=O)N2C[C@H](CCNC(=O)C(C)(C)O)Oc3ccc(-c4cc(F)ccc4F)cc32)c1 [Compound 30D, (S)-N-(2-(6-(2,5-difluoro-phenyl)-4-((3-isopropylphenyl)-sulfonyl)-3,4-dihydro-2H-benzo[b][1,4]oxazin-2-yl)ethyl)-2-hydroxy-2-methylpropanamide]	> 6.30	**** (The symbol “****” indicates a value greater than 200)	–	–	> 6.30	* (The symbol “*” indicates a value in the range of 25 to 90)
NS(=O)(=O)CCC(=O)NC[C@H]1CN(S(=O)(=O)c2cccc(C(F)(F)F)c2)c2cc(-c3cc(F)cc(OC(F)F)c3)ccc2O1 [Compound 30DA, (S)-N-((6-(3-(difluoromethoxy)-5-fluorophenyl)-4-((3-(trifluoro-methyl)phenyl)sulfonyl)-3,4-dihydro-2H-benzo[b][1,4]-oxazin-2-yl)methyl)-3-sulfamoylpropanamide]	> 6.30	*** (The symbol “***” indicates a value in the range of greater than 150 to 200)	5.30 to 6.30	* (The symbol “*” indicates a value in the range of 25 to 90)	–	–
CC(=O)NC(C)(C)C[C@@H]1CN(S(=O)(=O)c2cccc(C(F)(F)F)c2)c2cc(-c3cc(F)ccc3F)ccc2O1 [Compound 30DC, (R)-N-(1-(6-(2,5-difluoro-phenyl)-4-((3-(trifluoromethyl)-phenyl)sulfonyl)-3,4-dihydro-2H-benzo[b][1,4]oxazin-2-yl)-2-methylpropan-2-yl)acetamide]	> 6.30	*** (The symbol “***” indicates a value in the range of greater than 150 to 200)	5.30 to 6.30	* (The symbol “*” indicates a value in the range of 25 to 90)	–	–
CC(C)(C[C@H]1CN(S(=O)(=O)c2cccc(C(F)(F)F)c2)c2cc(-c3cc(F)ccc3F)ccc2O1)NS(C)(=O)=O [Compound 30DE, (S)-N-(1-(6-(2,5-difluoro-phenyl)-4-((3-(trifluoromethyl)-phenyl)sulfonyl)-3,4-dihydro-2H-benzo[b][1,4]oxazin-2-yl)-2-methylpropan-2-yl)methane-sulfonamide]	> 6.30	*** (The symbol “***” indicates a value in the range of greater than 150 to 200)	> 6.30	* (The symbol “*” indicates a value in the range of 25 to 90)	–	–
CC(C)(F)C(=O)NC[C@H]1CN(S(=O)(=O)c2cccc(C(F)(F)F)c2)c2cc(-c3cc(F)cc(OC(F)F)c3)ccc2O1 [Compound 30DG, (S)-N-((6-(3-(difluoromethoxy)-5-fluorophenyl)-4-((3-(trifluoro-methyl)phenyl)sulfonyl)-3,4-dihydro-2H-benzo[b][1,4]-oxazin-2-yl)methyl)-2-fluoro-2-methylpropanamide]	> 6.30	*** (The symbol “***” indicates a value in the range of greater than 150 to 200)	5.30 to 6.30	* (The symbol “*” indicates a value in the range of 25 to 90)	–	–
CC(C)(CO)C(=O)NC[C@H]1CN(S(=O)(=O)c2cccc(C(F)(F)F)c2)c2cc(-c3cc(F)cc(OC(F)F)c3)ccc2O1 [Compound 30DH, (S)-N-((6-(3-(difluoromethoxy)-5-fluorophenyl)-4-((3-(trifluoro-methyl)phenyl)sulfonyl)-3,4-dihydro-2H-benzo[b][1,4]-oxazin-2-yl)methyl)-3-hydroxy-2,2-dimethylpropanamide]	> 6.30	*** (The symbol “***” indicates a value in the range of greater than 150 to 200)	> 6.30	* (The symbol “*” indicates a value in the range of 25 to 90)	–	–
C=CCC(=O)NC[C@H]1CN(S(=O)(=O)c2cccc(C(F)(F)F)c2)c2cc(-c3cc(F)cc(OC(F)F)c3)ccc2O1 [Compound 30DI, (S)-N-((6-(3-(difluoromethoxy)-5-fluorophenyl)-4-((3-(trifluoro-methyl)phenyl)sulfonyl)-3,4-dihydro-2H-benzo[b][1,4]-oxazin-2-yl)methyl)but-3-enamide]	> 6.30	*** (The symbol “***” indicates a value in the range of greater than 150 to 200)	> 6.30	* (The symbol “*” indicates a value in the range of 25 to 90)	–	–
O=C(NC[C@H]1CN(S(=O)(=O)c2cccc(C(F)(F)F)c2)c2cc(-c3cc(F)cc(OC(F)F)c3)ccc2O1)C1(F)CC1 [Compound 30DJ, (S)-N-((6-(3-(difluoromethoxy)-5-fluorophenyl)-4-((3-(trifluoro-methyl)phenyl)sulfonyl)-3,4-dihydro-2H-benzo[b][1,4]-oxazin-2-yl)methyl)-1-fluorocyclopropane-1-carboxamide]	> 6.30	*** (The symbol “***” indicates a value in the range of greater than 150 to 200)	5.30 to 6.30	* (The symbol “*” indicates a value in the range of 25 to 90)	–	–
COc1cccc(-c2ccc3c(c2)N(S(=O)(=O)c2cccc(C(F)(F)F)c2)C[C@H](CCNC(=O)C(C)(C)O)O3)c1 [Compound 30E, (S)-2-hydroxy-N-(2-(6-(3-methoxyphenyl)-4-((3-(trifluoromethyl)phenyl)sulfonyl)-3,4-dihydro-2H-benzo[6][1,4]oxazin-2-yl)ethyl)-2-methylpropanamide]	> 6.30	**** (The symbol “****” indicates a value greater than 200)	–	–	> 6.30	** (The symbol “**” indicates a value in the range of greater than 90 to 150)
COc1cc(F)cc(-c2ccc3c(c2)N(S(=O)(=O)c2cccc(C(F)(F)F)c2)C[C@H](CCNC(=O)C(C)(C)O)O3)c1F [Compound 30F, (S)-N-(2-(6-(2,5-difluoro-3-methoxyphenyl)-4-((3-(trifluoromethyl)phenyl)sulfonyl)-3,4-dihydro-2H-benzo[b][1,4]oxazin-2-yl)ethyl)-2-hydroxy-2-methylpropanamide]	> 6.30	**** (The symbol “****” indicates a value greater than 200)	–	–	> 6.30	* (The symbol “*” indicates a value in the range of 25 to 90)
CC(C)c1cccc(S(=O)(=O)N2C[C@H](CCNC(=O)C(C)(C)O)Oc3ccc(-c4cccc(N(C)C)n4)cc32)c1 [Compound 30G, (S)-N-(2-(6-(6-(dimethylamino)-pyridin-2-yl)-4-((3-isopropyl-phenyl)sulfonyl)-3.,4-dihydro-2H-benzo[b][1,4]oxazin-2-yl)ethyl)-2-hydroxy-2-methylpropanamide]	> 6.30	**** (The symbol “****” indicates a value greater than 200)	–	–	> 6.30	* (The symbol “*” indicates a value in the range of 25 to 90)
CN(C)c1cccc(-c2ccc3c(c2)N(S(=O)(=O)c2cccc(C(F)(F)F)c2)C[C@H](CNC(=O)C(C)(C)O)O3)n1 [Compound 30H, (S)-N-((6-(6-(dimethylamino)-pyridin-2-yl)-4-((3-(trifluoromethyl)phenyl)sulfonyl)-3,4-dihydro-2H-benzo[b][1,4]oxazin-2-yl)methyl)-2-hydroxy-2-methylpropanamide]	> 6.30	**** (The symbol “****” indicates a value greater than 200)	–	–	> 6.30	* (The symbol “*” indicates a value in the range of 25 to 90)
CC(C)(O)C(=O)NC[C@H]1CN(S(=O)(=O)c2cccc(C(F)(F)F)c2)c2cc(-c3cccc(C(F)(F)F)n3)ccc2O1 [Compound 30I, (S)-2-hydroxy-2-methyl-N-((4-((3-(trifluoromethyl)phenyl)-sulfonyl)-6-(6-(trifluoromethyl)-pyridin-2-yl)-3,4-dihydro-2H-benzo[b][1,4]oxazin-2-yl)methyl)propanamide]	> 6.30	**** (The symbol “****” indicates a value greater than 200)	–	–	> 6.30	* (The symbol “*” indicates a value in the range of 25 to 90)
